Each structure is given as a SMILES string. Some results are limits rather than exact numbers.

Consider 21 molecules from patent publication US12528815B2, “5-amino-8-(4-pyridyl)-[1,2,4]triazolo[4,3-c]pyrimidin-3-one compounds for use against cancer” (Nxera Pharma UK Limited, priority 2020, dated 2026).

In assay [1] the target is T1, human adenosine A1 receptor (Homo sapiens, UniProt P30542).
T1 construct: expressed in transfected cells; host or cells: HEK293 cells infected with BacMam (the same paragraph also labels the preparation CHO-hA1)
T1 sequence (P30542 1-326): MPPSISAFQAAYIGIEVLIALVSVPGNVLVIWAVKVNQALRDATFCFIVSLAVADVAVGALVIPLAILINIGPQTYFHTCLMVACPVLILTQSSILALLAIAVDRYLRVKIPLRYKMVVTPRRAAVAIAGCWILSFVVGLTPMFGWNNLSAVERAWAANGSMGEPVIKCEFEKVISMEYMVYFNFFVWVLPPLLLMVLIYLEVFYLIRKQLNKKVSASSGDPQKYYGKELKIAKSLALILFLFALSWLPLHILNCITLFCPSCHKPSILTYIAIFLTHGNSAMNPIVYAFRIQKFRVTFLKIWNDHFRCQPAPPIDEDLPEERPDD
As to the kind of experiment: Inhibition binding assay, human adenosine A1 receptor membranes, [3H]DPCPX. Conditions: 1 nM [3H]DPCPX, 25° C., 1 h; IC50 converted to Ki with Cheng-Prusoff; read-out: A1 pKi (converted). The essentials: (§1)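 Membranes from BacMam-infected HEK293 cells (0.2 μg A2A, 1.4 μg A1) incubated 1 h at 25° C with test compound and 1 nM [3H]ZM241385 (A2A; 50 mM Tris-HCl pH 7.4) or [3H]DPCPX (A1; plus 100 mM NaCl, 10 mM MgCl2). Nonspecific: 1 μM CGS15943 or DPCPX. Filtration, scintillation; IC50 converted to Ki via Cheng-Prusoff.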

In assay [2] the target is T2, human adenosine A2A receptor (Homo sapiens, UniProt P29274).
T2 construct: expressed in transfected cells; host or cells: HEK293 cells infected with BacMam
T2 sequence (P29274 whole entry): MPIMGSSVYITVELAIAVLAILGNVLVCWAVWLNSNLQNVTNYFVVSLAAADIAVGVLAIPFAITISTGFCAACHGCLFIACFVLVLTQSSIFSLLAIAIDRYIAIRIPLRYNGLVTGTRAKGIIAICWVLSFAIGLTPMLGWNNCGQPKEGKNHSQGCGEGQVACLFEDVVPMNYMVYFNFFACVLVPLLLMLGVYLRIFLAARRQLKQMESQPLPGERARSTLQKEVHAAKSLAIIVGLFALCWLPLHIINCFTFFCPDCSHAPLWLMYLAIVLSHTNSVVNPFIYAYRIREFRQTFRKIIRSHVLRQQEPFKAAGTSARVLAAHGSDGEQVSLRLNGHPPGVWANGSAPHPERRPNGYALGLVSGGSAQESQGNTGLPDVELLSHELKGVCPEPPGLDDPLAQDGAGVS
As to the kind of experiment: Inhibition binding assay, human adenosine A2A receptor membranes, [3H]ZM241385. Particulars: 1 nM [3H]ZM241385, HEK293-hA2A membranes, 25° C., 1 h; IC50 converted to Ki with Cheng-Prusoff; read-out: A2A pKi (converted). The essentials: as §1

The target in assay [3] is T3, human CB1 receptor (Homo sapiens, UniProt P21554).
T3 construct: expressed in transfected cells; host or cells: CHO cells
T3 sequence (P21554 whole entry): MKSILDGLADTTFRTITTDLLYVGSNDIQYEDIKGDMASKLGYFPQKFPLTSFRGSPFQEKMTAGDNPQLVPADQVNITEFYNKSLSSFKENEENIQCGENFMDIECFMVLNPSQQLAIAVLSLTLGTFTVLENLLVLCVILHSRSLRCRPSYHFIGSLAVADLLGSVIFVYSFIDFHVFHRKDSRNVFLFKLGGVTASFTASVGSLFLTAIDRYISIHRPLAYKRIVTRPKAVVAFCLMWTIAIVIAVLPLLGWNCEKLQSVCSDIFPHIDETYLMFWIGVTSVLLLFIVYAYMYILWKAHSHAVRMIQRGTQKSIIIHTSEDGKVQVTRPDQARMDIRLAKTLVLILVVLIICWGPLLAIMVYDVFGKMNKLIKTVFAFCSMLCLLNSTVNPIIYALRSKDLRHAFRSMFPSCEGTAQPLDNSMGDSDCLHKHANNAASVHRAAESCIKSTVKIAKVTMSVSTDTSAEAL
Kind of assay: CB1 receptor antagonism, agonist-induced cAMP modulation (HTRF) in transfected CHO cells. The format is cell-based. Particulars: read-out: Antag IC50. Here is the method: Receptor antagonism: Evaluation of the antagonist activity of compounds at the human CB1 receptor expressed in transfected CHO cells, determined by measuring their effects on agonist-induced cAMP modulation using the HTRF detection method.
Thereafter, the reference agonist CP 55940 and the adenylyl cyclase activator NKH 477 are added at respective final concentrations of 3 nM and 3 μM.
For basal control measurements, CP 55940 is omitted from the wells containing 3 μM AM 281.
Following 20 min incubation at 37° C., the cells are lysed and the fluorescence acceptor (D2-labeled cAMP) and fluorescence donor (anti-cAMP antibody labeled with europium cryptate) are added.
After 60 min at room temperature, the fluorescence transfer is measured at λex=337 nm and λem=620 and 665 nm using a microplate reader (Rubystar, BMG). The cAMP concentration is determined by dividing the signal measured at 665 nm by that measured at 620 nm (ratio).
The standard reference antagonist is AM 281, which is tested in each experiment at several concentrations to generate a concentration-response curve from which its IC50 value is calculated.

Regarding `Cc1cc(-c2c(-c3ccccc3)nc(N)n3c(=O)n(C[C@@H]4COCCN4C)nc23)cc(C)n1` [Example 2-80, 5-amino-8-(2,6-dimethyl-4-pyridyl)-2-[[(3R)-4-methylmorpholin-3-yl]methyl]-7-phenyl-[1,2,4]triazolo[4,3-c]pyrimidin-3-one], the values for the Ki in assay [1] and in assay [2] were 0.2 µM and 0.00794 µM, respectively. In addition, the IC50 in assay [3] was greater than 100 µM.

In the case of `Cc1cc(-c2c(-c3ccccc3)nc(N)n3c(=O)n(CC(=O)N(C)C)nc23)cc(C)n1` [Example 2-25, 2-[5-amino-8-(2,6-dimethyl-4-pyridyl)-3-oxo-7-phenyl-[1,2,4]triazolo[4,3-c]pyrimidin-2-yl]-N,N-dimethyl-acetamide], in assay [2], the Ki was 0.01 µM. Further, the IC50 in assay [3] was greater than 100 µM.

As to `Cc1cc(-c2c(-c3ccccn3)nc(N)n3c(=O)n(CCC(F)(F)F)nc23)cc(C)n1` [Example 2-37, 5-amino-8-(2,6-dimethyl-4-pyridyl)-7-(2-pyridyl)-2-(3,3,3-trifluoropropyl)-[1,2,4]triazolo[4,3-c]pyrimidin-3-one], the Ki was greater than 3.16 µM in assay [1] and 0.0316 µM in assay [2]. Also, in assay [3], the IC50 is greater than 100 µM.

`CCN(C)CCn1nc2c(-c3cc(C)nc(C)c3)c(-c3ccccc3)nc(N)n2c1=O` [Example 2-18, 5-amino-8-(2,6-dimethyl-4-pyridyl)-2-[2-[ethyl(methyl)amino]ethyl]-7-phenyl-[1,2,4]triazolo[4,3-c]pyrimidin-3-one]: the Ki in assay [2] is 0.00631 µM. For the same molecule, the IC50 in assay [3] was greater than 100 µM.

For the molecule `Cc1cc(-c2c(-c3nc(C)cs3)nc(N)n3c(=O)n(CCC(F)(F)F)nc23)cc(C)n1` [Example 2-44, 5-amino-8-(2,6-dimethyl-4-pyridyl)-7-(4-methylthiazol-2-yl)-2-(3,3,3-trifluoropropyl)-[1,2,4]triazolo[4,3-c]pyrimidin-3-one], the Ki in assay [2] was 0.02 µM. For the same molecule, the IC50 in assay [3] was greater than 100 µM.

`COc1cnc(Cn2nc3c(-c4cc(C)nc(CO)c4)c(-c4ccccc4)nc(N)n3c2=O)c(F)c1` [Example 1-47, 5-amino-2-[(3-fluoro-5-methoxy-2-pyridyl)methyl]-8-[2-(hydroxymethyl)-6-methyl-4-pyridyl]-7-phenyl-[1,2,4]triazolo[4,3-c]pyrimidin-3-one]: the Ki in assay [1] was 0.501 µM; in assay [2], 0.00794 µM.

As for `Cc1cc(-c2c(-c3ccccc3)nc(N)n3c(=O)n(CCc4ccccc4)nc23)cc(Cl)n1` [Example 1-89, 5-amino-8-(2-chloro-6-methyl-4-pyridyl)-7-phenyl-2-(2-phenylethyl)-[1,2,4]triazolo[4,3-c]pyrimidin-3-one], the Ki in assay [1] is 0.126 µM; in assay [2] it was 0.00501 µM.

In the case of `Cc1cc(-c2c(-c3ccccc3)nc(N)n3c(=O)n([C@H](C)c4ccncc4)nc23)cc(C)n1` [Example 1-26, (R)-5-amino-8-(2,6-dimethyl-4-pyridyl)-7-phenyl-2-[1-(4-pyridyl)ethyl]-[1,2,4]triazolo[4,3-c]pyrimidin-3-one], the values for the Ki in assay [1] and in assay [2] were 0.794 µM and 0.0158 µM, respectively.

With `Cc1cc(-c2c(-c3ccccc3)nc(N)n3c(=O)n(Cc4ncc(F)cn4)nc23)cc(C)n1` [Example 1-35, 5-amino-8-(2,6-dimethyl-4-pyridyl)-2-[(5-fluoropyrimidin-2-yl)methyl]-7-phenyl-[1,2,4]triazolo[4,3-c]pyrimidin-3-one], the Ki was 1 µM in assay [1] and 0.0158 µM in assay [2].

For the molecule `Cc1cc(-c2c(-c3ccccc3)nc(N)n3c(=O)n(C4Cc5ccc(N)cc5C4)nc23)cc(C)n1` (centres unmarked) [Example 1-104, 5-amino-2-(5-aminoindan-2-yl)-8-(2,6-dimethyl-4-pyridyl)-7-phenyl-[1,2,4]triazolo[4,3-c]pyrimidin-3-one], the Ki in assay [1] was 0.1 µM; in assay [2], 0.002 µM.

Take `Cc1cc(-c2c(-c3ccccc3)nc(N)n3c(=O)n(CCN4CCC(F)(F)CC4)nc23)cc(C)n1` [Example 2-101, 5-amino-2-[2-(4,4-difluoro-1-piperidyl)ethyl]-8-(2,6-dimethyl-4-pyridyl)-7-phenyl-[1,2,4]triazolo[4,3-c]pyrimidin-3-one]: the Ki in assay [1] is 0.631 µM; in assay [2] it was 0.0158 µM.

Take `COC(=O)c1ccc(CCn2nc3c(-c4cc(C)nc(C)c4)c(-c4ccccc4)nc(N)n3c2=O)cc1` [Example 1-84, methyl 4-[2-[5-amino-8-(2,6-dimethyl-4-pyridyl)-3-oxo-7-phenyl-[1,2,4]triazolo[4,3-c]pyrimidin-2-yl]ethyl]benzoate]: the Ki in assay [1] was 0.794 µM; in assay [2], 0.0316 µM.

On to `COC(=O)c1cc(-c2c(-c3ccccc3)nc(N)n3c(=O)n(CCC(F)(F)F)nc23)cc(C)n1` [Example 2-52, methyl 4-[5-amino-3-oxo-7-phenyl-2-(3,3,3-trifluoropropyl)-[1,2,4]triazolo[4,3-c]pyrimidin-8-yl]-6-methyl-pyridine-2-carboxylate], for which the Ki in assay [1] is 0.2 µM; in assay [2], 0.000631 µM.

As for `Cc1cc(-c2c(-c3ccccc3)nc(N)n3c(=O)n(CC4(Cc5ccccc5)CCNCC4)nc23)cc(C)n1` [Example 1-102, 5-amino-2-[(4-benzyl-4-piperidyl)methyl]-8-(2,6-dimethyl-4-pyridyl)-7-phenyl-[1,2,4]triazolo[4,3-c]pyrimidin-3-one], the Ki was 0.0126 µM in assay [1] and 0.000501 µM in assay [2].

Take `Cc1cc(-c2c(-c3ccccc3)nc(N)n3c(=O)n(CCC(F)F)nc23)cc(C)n1` [Example 2-17, 5-amino-2-(3,3-difluoropropyl)-8-(2,6-dimethyl-4-pyridyl)-7-phenyl-[1,2,4]triazolo[4,3-c]pyrimidin-3-one]: the figures for the Ki in assay [1] and in assay [2] were 1 µM and 0.002 µM, respectively.

`Cc1cc(-c2c(-c3ccccc3)nc(N)n3c(=O)n(CCN4CCN(C)CC4)nc23)cc(C)n1` [Example 2-102, 5-amino-8-(2,6-dimethyl-4-pyridyl)-2-[2-(4-methylpiperazin-1-yl)ethyl]-7-phenyl-[1,2,4]triazolo[4,3-c]pyrimidin-3-one]: the values for the Ki in assay [1] and in assay [2] were greater than 3.16 µM and 0.126 µM, respectively.

With `Cc1cc(-c2c(-c3ccccc3)nc(N)n3c(=O)n(CCc4ccccn4)nc23)cc(C)n1` [Example 1-86, 5-amino-8-(2,6-dimethyl-4-pyridyl)-7-phenyl-2-[2-(2-pyridyl)ethyl]-[1,2,4]triazolo[4,3-c]pyrimidin-3-one], the Ki in assay [1] is 0.794 µM; in assay [2], 0.00501 µM.

On to `Cc1cc(-c2c(-c3ccc(F)cc3)nc(N)n3c(=O)n(Cc4ccc(F)c(N)n4)nc23)cc(CO)n1` [Example 1-60, 5-amino-2-[(6-amino-5-fluoro-2-pyridyl)methyl]-7-(4-fluorophenyl)-8-[2-(hydroxymethyl)-6-methyl-4-pyridyl]-[1,2,4]triazolo[4,3-c]pyrimidin-3-one], for which the results for the Ki in assay [1] and in assay [2] were 0.794 µM and 0.00158 µM, respectively.

With `Cc1cc(-c2c(-c3ccc(C)o3)nc(N)n3c(=O)n(CCC(F)(F)F)nc23)cc(C)n1` [Example 2-43, 5-amino-8-(2,6-dimethyl-4-pyridyl)-7-(5-methyl-2-furyl)-2-(3,3,3-trifluoropropyl)-[1,2,4]triazolo[4,3-c]pyrimidin-3-one], the Ki was 0.501 µM in assay [1] and 0.002 µM in assay [2].

Take `COc1cccc(Cn2nc3c(-c4cc(C)nc(C)c4)c(-c4ccccc4)nc(N)n3c2=O)n1` [Example 1-6, 5-amino-8-(2,6-dimethyl-4-pyridyl)-2-[(6-methoxy-2-pyridyl)methyl]-7-phenyl-[1,2,4]triazolo[4,3-c]pyrimidin-3-one]: the results for the Ki in assay [1] and in assay [2] were 0.2 µM and 0.000794 µM, respectively.

On to `Cc1cc(-c2c(-c3ccccc3)nc(N)n3c(=O)n(Cc4cccnn4)nc23)cc(C)[n+]1[O-]` [Example 1-43, 5-amino-8-(2,6-dimethyl-1-oxido-pyridin-1-ium-4-yl)-7-phenyl-2-(pyridazin-3-ylmethyl)-[1,2,4]triazolo[4,3-c]pyrimidin-3-one], for which the Ki in assay [1] was 0.316 µM; in assay [2] it was 0.0316 µM.
